PMC8040415, “Para-chloro-2-[^18F]fluoroethyl-etomidate: A promising new PET radiotracer for adrenocortical imaging” (International Journal of Medical Sciences, 2021)
Several values for one entry are separate records, joined by “and”; a condition that tells them apart may be missing. Equal entries are not always repeated. Entries after “also recorded” stand apart in the source; their conditions may differ.

Key:
[1] = PET/CT in non-human primate with kinetic modelling; format: in vivo, Macaca fascicularis; details: for time of peak uptake in the adrenal glands: SUVmean time-activity curves
Procedure: One female NHP, Macaca fascicularis, was obtained from the Astrid Fagræus Laboratory, Karolinska Institute, Comparative Medicine. The NHP was used to compare the [^18F]CETO and [^11C]MTO biodistribution and their uptake over time in adrenal and liver.
Ketamine (~10 mg/kg) was used as a sedative. Whilst being transported to the PET centre at Uppsala University Hospital, the NPH was weighed and maintained on iterated ketamine injections (15 mg/kg/h). Saturation levels were continuously measured through pulse oximetry, and oxygen administered as needed.
At the PET centre, the NPH was intubated under propofol-induced anaesthesia. General anaesthesia was maintained by sevoflurane inhalation (1.5 - 5.0%) and artificial ventilation. Two venous catheters were placed - one for blood sampling and one for tracer administration. Body temperature, heart rate, ECG, pCO2, pO2, SaO2 and blood pressure levels were monitored throughout the PET study. A General Electric Discovery MI PET/CT scanner (GE Healthcare, Milwaukee, USA) was used.
PET/CT positioning was determined by using a scout CT scan, and 6.5 MBq/kg of [^11C]MTO was administered I.V. through the catheter. A baseline dynamic 90 min PET scan over the abdomen was started. After a sufficient waiting period, to allow for the radioactive decay of carbon-11, 4.2 MBq/kg of [^18F]CETO was injected I.V. A 90 min baseline dynamic PET scan was started and was followed by a 15 min whole-body PET examination. Thereafter, a blockage study was performed by administering 0.5 mg/kg etomidate I.V. for 20 min. At the end of etomidate administration, corresponding to approximately 150 min after the baseline [^18F]CETO injection, 19.3 MB/kg of [^18F]CETO was administered I.V., followed by a 90 min dynamic PET scan. The amount of radioactivity used in the blocking study was nearly fivefold that used during the baseline PET examination, in order to render any remaining activity from the baseline scan negligible. During both [^18F]CETO PET scans, discrete venous blood samples (~2 mL) were collected in heparinized tubes at 5, 10, 20, 40 and 80 min p.i. (3 mL at the last time point) of [^18F]CETO to measure radioactivity in whole blood and in plasma and for metabolite analysis. PET images were reconstructed using an ordered-subsets maximisation (OSEM) algorithm including time-of-flight information and resolution recovery. Dynamic images were reconstructed into time frames with increasing durations.
In the PET images, volumes of interest (VOIs) were drawn over representative subsets of aorta, adrenals, kidneys, liver, lungs, pancreas and spleen and transferred to all dynamic time frames to obtain time-activity curves (TACs), showing SUV as a function of time, after normalization to injected activity per body weight. Plasma TACs were determined by multiplying the aorta TAC with the mean plasma-to-whole blood ratio of the five analysed blood samples. Then, a metabolite-corrected input curve, representing intact tracer in plasma, was calculated by multiplying the plasma TAC with a sigmoid fit to the measured parent fraction data.
Adrenal time-activity curves were fitted using single-tissue as well as irreversible and reversible two-tissue compartment models. The optimal model to describe the data was determined using the Akaike information criterion. In addition, data were analysed using the Patlak and Logan graphical analysis methods, assuming irreversible and reversible kinetics, respectively. Additionally, whole-body net uptake rate parametric images were calculated using the Patlak method.

NHP adrenal gland tissue = assay: Competition binding assay against 10 nM [^18F]CETO; design: species or system cynomolgus monkey (non-human primate; details: residual binding of 10 nM [^18F]CETO, NHP adrenal gland tissue 200 µg/mL, 60 min, room temperature
Procedure: (§1) Normal NHP adrenal tissue was weighed and homogenized in 20 volumes of ice-cold 0.32 M sucrose and stored in aliquots at -80 °C until use. For the saturation binding study, the homogenate was further diluted to 20 µg/mL in the assay. Triplicates of each ligand concentration in the range of 0.03-30 nmol/L [^18F]CETO, with and without a competing ligand (1 µmol/L metomidate), were incubated at room temperature for 60 min. For the competition binding assay, 200 µg/mL of NHP adrenal gland tissue was used. Triplicate tubes, containing 10 nM [^18F]CETO were incubated for 60 min at room temperature with three competing ligands, MTO, FETO and CETO, at concentrations between 0 and 30 nmol/L, respectively.
(§2) The incubations were terminated by filtration under vacuum through Whatman GF/C glass fibre filters, using a cell harvester (Brandel, Gaithersburg, MD). The filters were washed four times with 3 mL PBS buffer and transferred to scintillation tubes where the trapped radioactivity was measured in an automated gamma counter (Wizard 2480, PerkinElmer Downers Grove, IL, USA).
(§3) The saturation study was repeated twice with normal NHP adrenal gland tissue and the results were used to calculate the equilibrium dissociation constant, Kd, and the total target density for the binding of [^18F]CETO, Bmax. Values for IC50, Bmax and Kd were estimated by GraphPad Prism 8.2, using non-linear regression of the binding curves.

[2] = system: CYP11B1 and CYP11B2 in NHP adrenal gland homogenate; assay: Saturation binding of [^18F]CETO in adrenal gland homogenate; design: species or system cynomolgus monkey (non-human primate; details: saturation study
Procedure: as §1, §2, §3

[3] = system: normal NHP adrenal tissue; assay: In vitro association/dissociation kinetics (LigandTracer); design: species or system cynomolgus monkey (non-human primate; details: 1:1 kinetic binding model, NHP adrenal homogenate
Procedure: To determine the in vitro kinetics for association and dissociation of [^18F]CETO to normal NHP adrenal tissue, 20 µL of homogenate, corresponding to 40 µg of adrenal, was pipetted to a Poly-D-lysine coated cell dish (CELLCOAT™, Greiner Bio-One GmbH, Austria) and allowed to dry for 15 min. Subsequently, the dishes were placed in the inclined rotating holder of a LigandTracer™ yellow instrument (Ridgeview Instruments AB, Uppsala, Sweden) and [^18F]CETO was added with concentrations ranging from 1 to 5 nM to measure the association rate. A higher concentration was added when the previous concentration had reached equilibrium. To measure the dissociation rate, the radioactive solution was replaced with buffer after the highest concentration reached equilibrium. Data were analyzed with TraceDrawer software (Ridgeview Instruments AB, Uppsala, Sweden) and the association rate constant (kon), dissociation rate constant (koff) and equilibrium dissociation constant (KD) were computed using a 1:1 kinetic binding model.

[4] = system: human adrenal tumours and normal adrenal gland; assay: Frozen section autoradiography; format: binding; details: 0.03 nmol/L [^18F]CETO, 60 min
Procedure: Tissues from normal human adrenal glands, liver, kidney, spleen and small intestine were used along with samples of different types of adrenal tumours, aldosterone-producing adenomas (APA), cortisol-producing adenomas (CPA), ACC, and pheochromocytoma (PCC). Normal adrenal gland tissues and spleen tissues from non-human primates (NHPs) were also utilized.
Specimens for autoradiography were prepared from snap-frozen tissue, stored at -70 °C, and divided by a cryotome into 20 μm thick slices. The slices were placed on Superfrost^TM glass slides and stored at -20 °C until the autoradiographic examination. Slides were pre-incubated at room temperature for 20 min in a PBS buffer. Duplicate slides were incubated in 0.03 nmol/L [^18F]CETO for 60 min, in the presence or absence of an excess of metomidate (0.45 µmol/L) to block the specific binding of [^18F]CETO. After incubation, slides were washed for 3 × 3 min in cold PBS buffer, followed by rapid immersion in water. Slides were then dried for 10 min at 37 °C and exposed to Super Resolution Storage Phosphor Screens (PerkinElmer, Downers Grove, IL, USA) for >240 min and scanned in a Cyclone Plus Phosphor Imager (PerkinElmer, Model C431200, Downers Grove, IL, USA).

[5] = Ex-vivo organ distribution in rats; design: species or system Sprague Dawley rats
Procedure: A biodistribution study for [^18F]CETO was performed in thirty Sprague Dawley rats. A dose of 5.4±0.9 MBq [^18F]CETO was injected as a bolus in the lateral tail vein, to un-sedated rats. Three rats of each gender were then euthanized by high concentrations of CO2, at five predetermined time points; 10, 30, 60, 120 and 240 min post injection (p.i.), respectively, and their organs were harvested and weighed. Radioactivity content in the organs was measured in a well-type NaI(Tl) scintillation counter, applying correction for dead-time and for decay. The organ radioactivity readings were decay-corrected to the time of injection, and results were expressed as standardized uptake values (SUV).

[6] = PET-MRI in rats with and without metomidate blocking; format: in vivo, Sprague Dawley rats
Excerpt: Sevoflurane inhalation was used for the induction and maintenance of anaesthesia, and an intravenous catheter was placed in the lateral tail vein. After the investigations, the mice/rats were euthanized and their organs harvested and weighed, followed by measurement of radioactivity (as previously described). PET and MRI images were acquired on a Nanoscan PET-3TMRI scanner (Mediso Mediso, Medical Imaging Systems, Budapest, Hungary).
Two male Sprague Dawley rats were positioned on the heated bed of the scanner and a dynamic PET acquisition of the abdomen was initiated immediately before injection of 4-5 MBq of [^18F]CETO. Metomidate (1 µmol/kg) was co-injected in one of the rats as a blocker. The dynamic PET scan was continued for 60 min and was followed by a whole-body static scan, 3 beds, 5 min per bed position ~90 min post injection, and by MRI of the abdomen.
PET acquisition was initiated and 4.0-4.8 MBq of […] was intravenously administered. One of the rats was given metomidate (1 µmol/kg) I.V., for a blockage study. An initial dynamic PET scan of the abdomen was performed for 60 min, followed by a baseline whole body PET scan for 15 min.

[7] = Radio metabolite analysis of [^18F]CETO in NHP plasma; format: in vivo, Macaca fascicularis; details: for intact [^18F]CETO: NHP venous plasma
[8] = Observation of adverse effects after tracer injection, NHP; format: in vivo, Macaca fascicularis; details: recovery post-anaesthesia
Excerpt: After the imaging sessions, the NHP was wakened and de-intubated and, once stable, transported back to its living facility.

[9] = Observation of adverse effects after tracer injection, rats; details: rats following [^18F]CETO injection

With `C[C@H](c1ccccc1)n1cncc1C(=O)O[11CH3]` [[^11C]MTO, [^11C]Metomidate, reference compound] the highest adrenal-to-liver ratio ([1]; NHP, 40 minutes p.i.) was 1.5 and the “time of peak uptake in the adrenal glands” value (“time of peak uptake” for short) ([1]; NHP) was “approximately 40 min p.i”.
`C[C@H](c1ccccc1)n1cncc1C(=O)OCCF` [FETO] gave an IC50 (NHP adrenal gland tissue) of 3 nM.
In the case of `C[C@H](c1ccc(Cl)cc1)n1cncc1C(=O)OCC[18F]` [[^18F]CETO, para-chloro-2-[^18F]fluoroethyl-etomidate], the Bmax [2] is reported as 0.0082 to 0.0097 nmol/mg, the Kd ([2]; room temperature, 60 min, read-out: equilibrium dissociation constant, Kd) is reported as 0.66 nM and 0.66 to 0.67 nM and 0.67 nM and the Bmax ([2]; separate experiments A and B) is reported as 0.0097 nmol/mg and 0.0082 nmol/mg. The koff [3] was 0.00035 s⁻¹, the Kd ([3]; read-out: Kd value derived from the rate constants) was 0.59 nM and the “uptake in APAs compared to that of the normal adrenal gland” value [4] was “approximately threefold”. The “time of peak uptake” value ([5]; ex-vivo biodistribution) was 2 hr p.i, the “uptake in all other organs and tissues (SUV)” value ([5]; other than adrenal glands and early lungs and pancreas, bone and urinary bladder are exceptions) was ~1 SUV and the route of elimination [6] was “mainly renal”. The “time of peak adrenal uptake” value [6] was 120 min p.i, the highest adrenal-to-liver ratio ([1]; NHP, 85 min p.i.) was > 5 and the “time of peak uptake” value ([1]; NHP) was > 85 min p.i. For the same compound, the “rate constant k3 in the adrenal glands after blocking” value ([1]; NHP, after etomidate 0.5 mg/kg, irreversible two-tissue compartment model) was “reduced to zero”, the route of elimination ([1]; NHPs) was “mainly renal” and the “intact [^18F]CETO” value ([7]; 5 min p.i.) was 56%. For the same compound, the “intact [^18F]CETO” value ([7]; 80 min p.i.) was 11%, the “[^18F]CETO share of radioactivity in plasma” value ([7]; NHP, final observation time point 90 min p.i.) was “approximately 10%” and the half-life ([7]; female, cynomolgus monkey, plasma, intravenous, NHP, bi-phasic metabolism, read-out: plasma half-life, fast first phase) was ~10 min. For the same compound, the adverse effects [8] was “no adverse effects” and the adverse effects [9] was “No adverse effects”.
In the case of `C[C@H](c1ccccc1)n1cncc1C(=O)OCC[18F]` [[^18F]FETO, 2-[^18F]fluoroethyl-etomidate], the “blocking of adrenal uptake with metomidate” value ([6]; metomidate 1 µmol/kg) is reported as “unable to block; also recorded: not possible to block”.
Work on `COC(=O)c1cncn1C(C)c1ccccc1` (centres unmarked) [MTO, metomidate] yielded an IC50 (NHP adrenal gland tissue) of 2 nM.
`C[C@H](c1ccc(Cl)cc1)n1cncc1C(=O)OCCF` [CETO] showed an IC50 (NHP adrenal gland tissue) of 5 nM.
